Data on 1 substance can be found in US20160256480A1, “THERAPEUTIC COMPOSITION FOR WOUND HEALING” (priority 2015, published 2016).

Series [1] relates to J774A.1 cells. Briefly: Incubation of J774A.1 mouse macrophages with beta-glucan, phase-contrast examination of cell health. The class given is cell-based. The method, then:
(§1) J774A.1 cells are mouse monocyte/macrophage cells. These cells are adherent and upon death will detach from the surface fo the culture flasks or coverslips. Cells were grown to approximately 80% confluence in 24-well plates on 12 mm coverslips overnight. Cells were grown in a minimum essential medium with insulin (IMEMZO, Irvine Scientific, Santa Ana, Calif.) with 5% fetal bovine serum (FBS, Atlanta Biologicals, Norcross, Ga.). Beta-glucan was dissolved with MilliQ Ultrapure water. […] Beta-glucan was diluted with IMEMZO media and added to the cells for the duration of the incubation. Cells were examined daily and phase-contrast images taken at specific intervals to capture the health of the cells. All images were captured at 200× magnification.
The beta-glucan was purchased from Sigma-Aldrich (CAS Number 9051-97-2; MDL number MFCD00466918). Beta-glucan source was Euglena gracilis.

The nature of series [2]: Dissolution of beta-glucan in MilliQ Ultrapure water. The class given is physicochemical. The method, then:
as §1

Turning to “beta-1,3-Glucan from Euglena gracilis [beta-glucan]”, the “effect on cell growth and proliferation” value in series [1] (1 mg/ml beta-glucan over 48 hours) is “no adverse affect on the cell growth and proliferation”. Further, the “increase in cell numbers” value in series [1] (3 mg/ml beta-glucan, base media IMEMZO, 48 hours) was “increased in numbers at a rate that is typical in the base media”. For the same substance, the “visible pathological effects on cellular growth or survival” value in series [1] (3 mg/ml beta-glucan, mouse macrophages, 48 hour culture period) is listed as “did not pose any visible pathological effects on cellular growth or survival”. In series [1] (3 mg/ml beta-glucan, over the 48 hour culture period), the “cell size and adherence” value was “did not decrease in size and remained adherent”. The solubility in water entry in series [2] is given as “only partially dissolved”.
